Measured values: US20190263796A1, “LIM KINASE INHIBITORS, PHARMACEUTICAL COMPOSITION AND METHOD OF USE IN LIMK-MEDIATED DISEASES” (CELLIPSE, priority 2016, published 2019)
Read-outs that look alike come from different tables or passages of the source.

How the values were obtained:
[1] = biological target: LIMK1(h) (Homo sapiens, UniProt P53667); experiment: LIMK1 kinase assay (Eurofins Panlabs, radiometric); format: biochemical; design: purchased Eurofins Panlabs Inc. (contract assay service); conditions: 15 μM ATP, read-out: IC50 LIMK1
Sequence of LIMK1(h) (P53667 whole entry): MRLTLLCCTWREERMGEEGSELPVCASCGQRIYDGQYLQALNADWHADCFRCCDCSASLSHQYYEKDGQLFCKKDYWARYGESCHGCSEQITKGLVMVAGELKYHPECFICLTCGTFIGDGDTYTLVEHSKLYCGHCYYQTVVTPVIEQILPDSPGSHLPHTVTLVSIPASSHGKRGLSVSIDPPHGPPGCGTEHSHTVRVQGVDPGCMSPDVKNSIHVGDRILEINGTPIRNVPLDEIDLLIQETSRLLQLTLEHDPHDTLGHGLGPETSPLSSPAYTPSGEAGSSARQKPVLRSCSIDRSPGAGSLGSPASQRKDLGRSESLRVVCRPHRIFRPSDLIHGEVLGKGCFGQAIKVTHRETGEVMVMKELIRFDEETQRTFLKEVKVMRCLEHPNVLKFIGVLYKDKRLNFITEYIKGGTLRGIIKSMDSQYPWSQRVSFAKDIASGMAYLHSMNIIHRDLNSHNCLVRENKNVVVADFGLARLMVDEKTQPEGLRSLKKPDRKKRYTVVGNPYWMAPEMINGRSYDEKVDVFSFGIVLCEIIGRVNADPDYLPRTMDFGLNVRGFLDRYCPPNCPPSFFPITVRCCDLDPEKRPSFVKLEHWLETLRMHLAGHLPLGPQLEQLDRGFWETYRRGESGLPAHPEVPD
Procedure: Compounds were tested in a LIMK1 assay performed by Eurofins Panlabs Inc. LIMK1 (h) is incubated with 8 mM MOPS pH 7.0, 0.2 mM EDTA, 0.6 mg/mL cofilin, 10 mM Magnesium acetate and [gamma-33P]-ATP. The reaction is initiated by the addition of the Mg/ATP mix. After incubation for 40 min at room temperature, the reaction is stopped by the addition of phosphoric acid to a concentration of 0.5%. […] IC50 LIMK1 is then determined.

[2] = system: Phospho-Ser3-Cofilin/Total Cofilin; experiment: Western blot of cellular cofilin phosphorylation status, MV4-11 (II.4); format: cell-based; conditions: Homo sapiens; MV4-11 cells; 2 h treatment
Procedure: MV4-11 cell line was originally purchased from the American Type Culture Collection (ATCC). MV4-11 cells are cultured in RPMI 1640 10% (v/v) FBS supplemented with 100 U/mL^−1 penicillin, 0.1 mg·mL^−1 streptomycin (PAN Biotech P06-07100) and 2 mM Glutamine (Sigma-Aldrich 59202C). Cells were maintained at 37° C. with 5% CO2.
(§1) In a 6 wells plate (Falcon 353046), 2·10^6 cells in 1.5 mL medium are treated for 2 h with compounds. Cells are then collected and cell lysis is performed at 4° C. using RIPA buffer supplemented with protease inhibitors cocktail (Sigma-Aldrich P8340) and phosphatase inhibitors cocktail (Sigma-Aldrich P5726). Following centrifugation 30 min 15000 g 4° C., supernatants are mixed with Laemmli buffer and denaturation is performed by heating 5 min 95° C. 10 μL of samples are subjected to electrophoresis on 15% SDS-PAGE. After electro-transfer (Mini Transblot, Bio-Rad), the PVDF membrane (Merck-Millipore Immobilon P IPVH00010) is blocked with Tris Buffered Saline, pH 7.4 (TBS) with 0.1% Tween 20 and 5% BSA for 1 h RT under agitation. The membrane was rinsed 3 times 10 min RT under agitation with TBS, 0.1% Tween-20 (TBST) and then 1 h RT with anti-phospho-Ser3-cofilin (Cell Signaling Technology #3313, 1/1000 dilution) antibody or anti-cofilin (Cell Signaling Technology #3312, 1/1000 dilution) diluted in TBS, 0.1% Tween 20 and 1% BSA. The membrane is then rinsed 3 times 10 min RT under agitation in TBST and incubated for 1 hour with anti-rabbit secondary antibody, horseradish peroxidase conjugated (Jackson Immunoresearch #711-036-152) under agitation at room temperature. After three washes 10 min RT in TBST, the detection of total or phosphorylated cofilin was performed using chemiluminescence kit ECL™ Plus (GE Healthcare RPN2132). For each concentration of compound, ratio between phosphorylated cofilin and total cofilin is determined. This ratio is then expressed as percentage of control ratio (i.e ratio from DMSO treated cells). IC50 is then determined.

[3] = system: Phospho-Ser3-Cofilin/Total Cofilin; experiment: Western blot cofilin phosphorylation, MOLM-14; format: cell-based; conditions: MOLM-14 cells; 2 h
Procedure: (§2) MOLM-14 cell line was originally purchased from the American Type Culture Collection (ATCC). MOLM-14 cells are cultured in MEM alpha 10% (v/v) FBS supplemented with 100 U/mL^−1 penicillin, 0.1 mg·mL^−1 streptomycin (PAN Biotech P06-07100). Cells were maintained at 37° C. with 5% CO2.
as §1, with “10 min at room temperature under agitation” for “10 min RT under agitation”, “1 h at room temperature with anti-phospho-Ser3-cofilin” for “1 h RT with anti-phospho-Ser3-cofilin”, “for 1 h with anti-rabbit” for “for 1 hour with anti-rabbit”, “10 min at room temperature in TBST,” for “10 min RT in TBST,”, “control ratio (i.e., ratio from” for “control ratio (i.e ratio from”, “cells). IC50 Phospho-Ser3-Cofilin/Total Cofilin is then” for “cells). IC50 is then”

[4] = system: P-MEK/Total MEK; experiment: Western blot MEK1 phosphorylation, MOLM-14; format: cell-based; conditions: read-out: IC50 P-MEK/Total MEK; MOLM-14 cells; 2 h
Procedure: as §2
(§3) In a 6 wells plate (Falcon 353046), 2·10^6 cells in 1.5 mL medium are treated for 2 h with compounds. Cells are then collected and cell lysis is performed at 4° C. using RIPA buffer supplemented with protease inhibitors cocktail (Sigma-Aldrich P8340) and phosphatase inhibitors cocktail (Sigma-Aldrich P5726). Following centrifugation 30 min 15000 g 4° C., supernatants are mixed with Laemmli buffer and denaturation is performed by heating 5 min 95° C. 10 μL of samples are subjected to electrophoresis on 15% SDS-PAGE. After electro-transfer (Mini Transblot, Bio-Rad), the PVDF membrane (Merck-Millipore Immobilon P IPVH00010) is blocked with Tris Buffered Saline, pH 7.4 (TBS) with 0.1% Tween 20 and 5% BSA for 1 h at room temperature under agitation. The membrane was rinsed 3 times 10 min at room temperature under agitation with TBS, 0.1% Tween-20 (TBST) and then 1 h at room temperature with anti-phospho-Ser218/222-MEK1 (Merck-Millipore 07-461, 1/1000 dilution) antibody or anti-MEK1 (Merck-Millipore 07-641, 1/1000 dilution) diluted in TBS, 0.1% Tween 20 and 1% BSA. The membrane is then rinsed 3 times 10 min RT under agitation in TBST and incubated for 1 h with anti-rabbit secondary antibody, horseradish peroxidase conjugated (Jackson Immunoresearch #711-036-152) under agitation at room temperature. After three washes 10 min at room temperature in TBST, the detection of total or phosphorylated cofilin was performed using chemiluminescence kit ECL™ Plus (GE Healthcare RPN2132). For each concentration of compound, ratio between phosphorylated cofilin and total cofilin is determined. This ratio is then expressed as percentage of control ratio (i.e., ratio from DMSO treated cells). IC50 P-MEK/Total MEK is then determined.
(§4) Selectivity ratios are calculated by dividing the IC50 P-MEK/Total MEK value (μM) by the IC50 Phospho-Ser3-Cofilin/Total Cofilin value (μM).

[5] = system: P-MEK/Total MEK; experiment: Western blot MEK1 phosphorylation, Kasumi-1; format: cell-based; conditions: Homo sapiens, Kasumi 1, 2 h, read-out: IC50 P-MEK/Total MEK
Procedure: Cells were maintained at 37° C. with 5% CO2.
as §3, §4

[6] = system: Phospho-Ser3-Cofilin/Total Cofilin; experiment: Western blot cofilin phosphorylation, HL-60; format: cell-based; conditions: Homo sapiens; HL-60 cells; 2 h
Procedure: (§5) HL-60 cell line was originally purchased from the Leibniz-Institut Deutsche Sammlung von Mikroorganismen und Zellkulturen GmbH (DSMZ). HL-60 cells are cultured in RPMI 1640 10% (v/v) FBS supplemented with 100 U/mL^−1 penicillin, 0.1 mg·mL^−1 streptomycin (PAN Biotech P06-07100). Cells were maintained at 37° C. with 5% CO2.
as §1, with “10 min at room temperature under agitation” for “10 min RT under agitation”, “1 h at room temperature with anti-phospho-Ser3-cofilin” for “1 h RT with anti-phospho-Ser3-cofilin”, “for 1 h with anti-rabbit” for “for 1 hour with anti-rabbit”, “10 min at room temperature in TBST,” for “10 min RT in TBST,”, “control ratio (i.e., ratio from” for “control ratio (i.e ratio from”, “cells). IC50 Phospho-Ser3-Cofilin/Total Cofilin is then” for “cells). IC50 is then”

[7] = system: P-MEK/Total MEK; experiment: Western blot MEK1 phosphorylation, HL-60; format: cell-based; conditions: Homo sapiens, HL-60, 2 h, read-out: IC50 P-MEK/Total MEK
Procedure: as §5, §3, §4

[8] = system: Phospho-Ser3-Cofilin/Total Cofilin; experiment: Western blot cofilin phosphorylation, Kasumi-1; format: cell-based; conditions: Homo sapiens; Kasumi-1 cells; 2 h
Procedure: Kasumi-1 cell line was originally purchased from the American Type Culture Collection (ATCC). Kasumi-1 cells are cultured in RPMI 1640 20% (v/v) FBS supplemented with 100 U/mL^−1 penicillin, 0.1 mg·mL^−1 streptomycin (PAN Biotech P06-07100). Cells were maintained at 37° C. with 5% CO2.
In a 6 wells plate (Falcon 353046), 2·10^6 cells in 1.5 mL medium are treated for 2 h with compounds. Cells are then collected and cell lysis is performed at 4° C. using RIPA buffer supplemented with protease inhibitors cocktail (Sigma-Aldrich P8340) and phosphatase inhibitors cocktail (Sigma-Aldrich P5726). Following centrifugation 30 min 15000 g 4° C., supernatants are mixed with Laemmli buffer and denaturation is performed by heating 5 min 95° C. 10 μL of samples are subjected to electrophoresis on 15% SDS-PAGE. After electro-transfer (Mini Transblot, Bio-Rad), the PVDF membrane (Merck-Millipore Immobilon P IPVH00010) is blocked with Tris Buffered Saline, pH 7.4 (TBS) with 0.1% Tween 20 and 5% BSA for 1 h RT under agitation. […] For each concentration of compound, ratio between phosphorylated cofilin and total cofilin is determined. This ratio is then expressed as percentage of control ratio (i.e., ratio from DMSO treated cells). IC50 Phospho-Ser3-Cofilin/Total Cofilin is then determined.

[9] = system: Phospho-Ser3-Cofilin/Total Cofilin; experiment: Western blot cofilin phosphorylation, MOLM-13; format: cell-based; conditions: MOLM-13 cells; 2 h
Procedure: as §5, with “MOLM-13” for “HL-60”, “20%” for “10%”
as §1, with “10 min at room temperature under agitation” for “10 min RT under agitation”, “1 h at room temperature with anti-phospho-Ser3-cofilin” for “1 h RT with anti-phospho-Ser3-cofilin”, “for 1 h with anti-rabbit” for “for 1 hour with anti-rabbit”, “10 min at room temperature in TBST,” for “10 min RT in TBST,”, “control ratio (i.e., ratio from” for “control ratio (i.e ratio from”, “cells). IC50 Phospho-Ser3-Cofilin/Total Cofilin is then” for “cells). IC50 is then”

[10] = system: P-MEK/Total MEK; experiment: Western blot MEK1 phosphorylation, MOLM-13; format: cell-based; conditions: read-out: IC50 P-MEK/Total MEK; MOLM-13 cells; 2 h
Procedure: as §5, with “MOLM-13” for “HL-60”, “20%” for “10%”
as §3, §4

[11] = biological target: B-Raf(h) (Homo sapiens, UniProt P15056); experiment: B-Raf kinase assay (Eurofins Panlabs, radiometric); format: biochemical; design: purchased Eurofins Panlabs Inc. (contract assay service); conditions: Table 8; for IC50: 120 μM ATP, read-out: IC50 B-Raf; for Selectivity ratio: IC50 B-Raf (nM) divided by IC50 LIMK1 (nM)
Sequence of B-Raf(h) (P15056 whole entry): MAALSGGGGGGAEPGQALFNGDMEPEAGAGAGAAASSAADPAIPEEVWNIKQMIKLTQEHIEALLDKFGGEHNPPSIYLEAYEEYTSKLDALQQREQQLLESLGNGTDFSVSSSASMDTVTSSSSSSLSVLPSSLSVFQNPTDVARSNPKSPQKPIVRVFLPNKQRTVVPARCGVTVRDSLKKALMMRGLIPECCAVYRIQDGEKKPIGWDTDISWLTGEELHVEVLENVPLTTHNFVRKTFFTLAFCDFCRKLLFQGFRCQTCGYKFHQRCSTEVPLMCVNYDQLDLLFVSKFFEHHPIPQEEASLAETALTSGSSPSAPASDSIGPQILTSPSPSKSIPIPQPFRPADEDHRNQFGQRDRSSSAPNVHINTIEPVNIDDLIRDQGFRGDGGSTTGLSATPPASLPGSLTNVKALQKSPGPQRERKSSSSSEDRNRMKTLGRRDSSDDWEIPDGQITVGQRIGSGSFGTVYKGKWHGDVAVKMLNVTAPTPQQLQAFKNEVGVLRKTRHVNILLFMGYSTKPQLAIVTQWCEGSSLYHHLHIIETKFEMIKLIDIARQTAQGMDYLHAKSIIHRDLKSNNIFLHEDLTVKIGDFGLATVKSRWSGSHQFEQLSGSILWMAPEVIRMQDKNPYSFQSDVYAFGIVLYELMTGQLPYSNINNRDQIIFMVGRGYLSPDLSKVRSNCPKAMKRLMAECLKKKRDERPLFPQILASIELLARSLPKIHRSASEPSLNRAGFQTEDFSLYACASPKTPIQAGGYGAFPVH
Procedure: IC50 B-Raf is then determined.
Selectivity ratios are calculated by dividing the IC50 B-Raf (nM) by the IC50 LIMK1 (nM).

IC50 ([1]; Table 2) [nM] | IC50 [2] [nM] | IC50 [11] [nM] | Selectivity ratio [11] | SMILES | further results
500 to 5000 | 200 to 1000 | – | – | CC(C)(C)c1nc(-c2cccc(NS(=O)(=O)c3c(F)cccc3F)c2F)c(-c2ncnc3[nH]ccc23)s1 [Compound 7, N-(3-(2-(tert-butyl)-5-(7H-pyrrolo[2,3-d]pyrimidin-4-yl)thiazol-4-yl)-2-fluorophenyl)-2,6-difluorobenzenesulfonamide] | –
100 to 500 | < 200 | – | – | CCCS(=O)(=O)Nc1cccc(-c2nc(C(C)(C)C)sc2-c2ccnc(Nc3ccccc3)n2)c1F [Compound 3, N-(3-(2-(tert-butyl)-5-(2-(phenylamino)pyrimidin-4-yl)thiazol-4-yl)-2-fluorophenyl)propane-1-sulfonamide] | –
– | – | – | – | CNC(=O)Cc1nc(-c2cccc(NS(=O)(=O)c3c(F)cccc3F)c2F)c(-c2ccnc(Nc3ccccc3)n2)s1 [9 (Na)] | IC50 [3]: < 200 nM; IC50 [4]: 200 to 1000 nM; IC50 [5]: > 1000 nM; IC50 [6]: 200 to 1000 nM; IC50 [7]: > 1000 nM; IC50 [8]: 200 to 1000 nM; IC50 [9]: 200 to 1000 nM; IC50 [10]: > 1000 nM
< 10 | > 1000 | 10 to 100 | 4 | CCOC(=O)Cc1nc(-c2cccc(NS(=O)(=O)c3c(F)cccc3F)c2F)c(-c2ccnc(Nc3ccccc3)n2)s1 [Compound 2, ethyl 2-(4-(3-(2,6-difluorophenylsulfonamido)-2-fluorophenyl)-5-(2-(phenylamino)pyrimidin-4-yl)thiazol-2-yl)acetate] | –
500 to 5000 | > 1000 | 500 to 5000 | 16 | CC(C)(C)OC(=O)Nc1cccc(-c2nc(C(C)(C)C)sc2-c2ccnc(Nc3ccccc3)n2)c1F [Compound 6, tert-butyl (3-(2-(tert-butyl)-5-(2-(phenylamino)pyrimidin-4-yl)thiazol-4-yl)-2-fluorophenyl)carbamate] | –
100 to 500 | 200 to 1000 | – | – | CC(C)(C)c1nc(-c2cccc(NS(=O)(=O)CCC(F)(F)F)c2F)c(-c2ccnc(Nc3ccccc3)n2)s1 [Compound 4, N-(3-(2-(tert-butyl)-5-(2-(phenylamino)pyrimidin-4-yl)thiazol-4-yl)-2-fluorophenyl)-3,3,3-trifluoropropane-1-sulfonamide] | –
100 to 500 | – | – | – | CC(C)(C)c1nc(-c2cccc(NS(=O)(=O)C3CC3)c2F)c(-c2ccnc(Nc3ccccc3)n2)s1 [Compound 10, N-(3-(2-(tert-butyl)-5-(2-(phenylamino)pyrimidin-4-yl)thiazol-4-yl)-2-fluorophenyl)cyclopropanesulfonamide] | –
100 to 500 | – | 500 to 5000 | 11 | CC(C)(C)c1nc(-c2cccc(NC(=O)C(=O)c3c(F)cccc3F)c2F)c(-c2ccnc(Nc3ccccc3)n2)s1 [Compound 5, N-(3-(2-(tert-butyl)-5-(2-(phenylamino)pyrimidin-4-yl)thiazol-4-yl)-2-fluorophenyl)-2-(2,6-difluorophenyl)-2-oxoacetamide] | IC50 ([1]; Table 8): 500 to 5000 nM
